System: P12-Ichikawa
Assay: cell viability relative to DMSO control; higher = less cytotoxic
Conditions: 48 h
Outline: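 Three leukemia lines were tested: NOMO1 and SEM at 500 cells/well and P12-Ichikawa at 1000 cells/well. Each was adapted for at least four passages in each medium and seeded in 5 μl in 1536-well plates, and library compounds in DMSO were pin-dosed from 47 μM to 0.79 nM in 11 threefold steps. After 48 h at 37°C, CellTiter-Glo One luminescence was read. Viability is a percentage relative to DMSO wells on each plate, with cell-free wells as background.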

[1] = HPLM + 10% dialyzed FBS, 0.000781 µM
[2] = HPLM + 10% dialyzed FBS, 0.00234 µM
[3] = HPLM + 10% dialyzed FBS, 0.00702 µM
[4] = HPLM + 10% dialyzed FBS, 0.0211 µM
[5] = HPLM + 10% dialyzed FBS, 0.0632 µM
[6] = HPLM + 10% dialyzed FBS, 0.19 µM
[7] = HPLM + 10% dialyzed FBS, 0.569 µM
[8] = HPLM + 10% dialyzed FBS, 1.71 µM
[9] = HPLM + 10% dialyzed FBS, 5.12 µM
[10] = HPLM + 10% dialyzed FBS, 15.4 µM
[11] = HPLM + 10% dialyzed FBS, 46.1 µM
[12] = RPMI 5 mM glucose + 10% FBS, 0.000781 µM
[13] = RPMI 5 mM glucose + 10% FBS, 0.00234 µM
[14] = RPMI 5 mM glucose + 10% FBS, 0.00702 µM
[15] = RPMI 5 mM glucose + 10% FBS, 0.0211 µM
[16] = RPMI 5 mM glucose + 10% FBS, 0.0632 µM
[17] = RPMI 5 mM glucose + 10% FBS, 0.19 µM
[18] = RPMI 5 mM glucose + 10% FBS, 0.569 µM
[19] = RPMI 5 mM glucose + 10% FBS, 1.71 µM
[20] = RPMI 5 mM glucose + 10% FBS, 5.12 µM
[21] = RPMI 5 mM glucose + 10% FBS, 15.4 µM
[22] = RPMI 5 mM glucose + 10% FBS, 46.1 µM
[23] = RPMI 5 mM glucose + 10% dialyzed FBS, 0.000781 µM
[24] = RPMI 5 mM glucose + 10% dialyzed FBS, 0.00234 µM
[25] = RPMI 5 mM glucose + 10% dialyzed FBS, 0.00702 µM
[26] = RPMI 5 mM glucose + 10% dialyzed FBS, 0.0211 µM
[27] = RPMI 5 mM glucose + 10% dialyzed FBS, 0.0632 µM
[28] = RPMI 5 mM glucose + 10% dialyzed FBS, 0.19 µM
[29] = RPMI 5 mM glucose + 10% dialyzed FBS, 0.569 µM
[30] = RPMI 5 mM glucose + 10% dialyzed FBS, 1.71 µM
[31] = RPMI 5 mM glucose + 10% dialyzed FBS, 5.12 µM
[32] = RPMI 5 mM glucose + 10% dialyzed FBS, 15.4 µM
[33] = RPMI 5 mM glucose + 10% dialyzed FBS, 46.1 µM

SMILES	cell viability [1] [%]	cell viability [2] [%]	cell viability [3] [%]	cell viability [4] [%]	cell viability [5] [%]	cell viability [6] [%]	cell viability [7] [%]	cell viability [8] [%]	cell viability [9] [%]	cell viability [10] [%]	cell viability [11] [%]	cell viability [12] [%]	cell viability [13] [%]	cell viability [14] [%]	cell viability [15] [%]	cell viability [16] [%]	cell viability [17] [%]	cell viability [18] [%]	cell viability [19] [%]	cell viability [20] [%]	cell viability [21] [%]	cell viability [22] [%]	cell viability [23] [%]	cell viability [24] [%]	cell viability [25] [%]	cell viability [26] [%]	cell viability [27] [%]	cell viability [28] [%]	cell viability [29] [%]	cell viability [30] [%]	cell viability [31] [%]	cell viability [32] [%]	cell viability [33] [%]
C[C@H](CCC(=O)O)[C@H]1CCC2C3C[C@H](O)[C@@H]4C[C@H](O)CC[C@]4(C)C3CC[C@@]21C (stereo partly specified)	106	113	101	112	126	115	97.3	93.7	107	96.8	108	105	126	120	114	117	108	105	105	102	104	105	98.7	108	103	103	108	97.5	96.9	98.9	105	90.4	94.9
CCC(C)N1\N=C/N(C1=O)C2=CC=C(C=C2)N3CCN(CC3)C4=CC=C(OC[C@H]5CO[C@@](C[N]6C=NC=N6)(O5)C7=CC=C(Cl)C=C7Cl)C=C4 (stereo partly specified)	99.9	109	114	120	111	115	101	101	103	98.8	104	111	111	119	114	108	115	115	99.7	108	110	97.2	111	113	108	111	113	111	106	105	100	98.5	95.7
C[C@@H]1CCN(C(=O)CC#N)C[C@@H]1N(C)c1ncnc2[nH]ccc12	97.1	87.1	82.4	91.3	86.7	88.5	86.2	87.7	77.5	84	78.6	81.9	85.6	83.6	86.3	95.5	85.2	92.4	88.2	87.6	82.1	81.9	81.9	80.6	84.7	81.8	79.4	79.4	78.7	76.4	78.2	72.1	73.8
CC1(CN2CCC(n3c(=O)[nH]c4ccccc43)CC2)OCc2ccccc2-n2cccc21 (stereo unspecified)	99.7	97.6	105	98.7	102	104	94.4	99.9	99	99.6	92.8	96	99.9	93.1	94.8	98.3	98.5	106	109	102	96.8	87.9	94	92.5	96.4	97.2	97.7	99.2	94	93.8	98.7	94.3	98.5
CCOC(=O)[C@@]1(CCCCCCOc2ccc(Cl)cc2)CO1	113	108	117	114	112	113	111	105	105	95.2	7.68	108	115	114	117	118	111	107	110	115	104	12.1	121	123	125	122	114	111	116	107	113	107	20.8
C=C1C(=O)OC(CCCCCCCC)C1C(=O)O (stereo unspecified)	105	116	113	122	123	122	124	121	129	120	115	124	120	123	132	129	122	137	132	128	129	128	107	116	122	129	124	123	133	131	133	128	113
Cc1nn(C)c(COc2ccc(N3CCN([S+](=O)([O-])N(C)C)CC3)cc2)c1-c1cccc2c(CCCOc3cccc4ccccc34)c(C(=O)O)n(CCN3CCOCC3)c12	92.3	99.2	97.4	102	103	106	107	110	29.9	29.2	28	89.3	107	101	97.7	105	107	109	113	104	109	46.6	87.5	107	104	106	112	115	120	114	96.1	97.6	36.7
